Among the data in patent US12351581B2, “Compounds for FGFR inhibition” (Cogent Biosciences, Inc., priority 2023, dated 2025) are IC50 values, retold here.

The target in one assay is T1, FGFR2 (Homo sapiens, UniProt P21802).
T1 construct: biochemical assays using purified intracellular domains of the respective isoforms; purchased Carna Bioscience 08-134
Nature of the assay: FGFR wild type enzyme assay (HTRF KinEASE-TK). Format: biochemical. The conditions noted are these: ATP 2 uM. The method, then:
(§1) Activity against FGFR wild type and mutant enzymes were determined in biochemical assays using purified intracellular domains of the respective isoforms using HTRF KinEASE-TK assay technology from CisBio, now PerkinElmer. (Catalogue number 62TK0PEC). Briefly test compounds were tested in 11 point 1:3 serial dilutions, typical final concentration range from 10,000 nM to 0.17 nM. Test compounds were dissolved in DMSO and added to assay plates using acoustic transfer. Enzyme was pre-incubated with test compound for 30 minutes and the assay was initiated by addition of ATP and TK-peptide substrate. After 60 minutes at room temperature the reaction was quenched with detection reagent and incubated for an additional 60 minutes at room temperature. The plates were read using a multimode reader and the emission ratio of 665 nm to 615 nm was determined. This ratio was converted to percent of control (POC). [1-(high control-sample signal)/(high control-low control)]*100. Wells without compound were used to determine high control values and wells without enzyme were used to determine low control values. The POC values were fit using a four-parameter logistic model and the value where the fit curve was equal to 50 POC was reported as the IC50 using the Signals Vitro Vivo software package (PerkinElmer). Final assay conditions were: 50 mM HEPES pH7.5, 10 mM MgCl2, 1 mM EDTA, 0.01% Brij-35, 2 mM MnCl2, 1 mM DTT, and 0.5 uM TK-peptide. The enzyme source, catalogue number, final enzyme concentration, and final ATP concentration can be found in the tables 1-2 below.
(In TR-FRET formats the signal depends on donor and acceptor labels being close together.)

Another assay deals with FGFR2-WT (Homo sapiens, UniProt P21802). Briefly: Phosphorylated FGFR2-WT (pFGFR2-WT) cell assay, KATOIII cells. Format: cell-based. As to conditions: 1 hour incubation, phospho FGFR2 HTRF. The method, then: KATOIII cells were grown in the appropriate growth medium, IMDM supplemented with 20% fetal bovine serum. Cells were seeded into a 384-well at 1×10^5 cells/25 μL/well. Cells were treated with compound using three-fold serial dilutions at final concentrations ranging from 10 μM to 0.5 nM. Compound was incubated on cells for 1 hour at 37° C., 5% CO2.
Chain of FGFR2-WT (P21802 430-767 limits assumed): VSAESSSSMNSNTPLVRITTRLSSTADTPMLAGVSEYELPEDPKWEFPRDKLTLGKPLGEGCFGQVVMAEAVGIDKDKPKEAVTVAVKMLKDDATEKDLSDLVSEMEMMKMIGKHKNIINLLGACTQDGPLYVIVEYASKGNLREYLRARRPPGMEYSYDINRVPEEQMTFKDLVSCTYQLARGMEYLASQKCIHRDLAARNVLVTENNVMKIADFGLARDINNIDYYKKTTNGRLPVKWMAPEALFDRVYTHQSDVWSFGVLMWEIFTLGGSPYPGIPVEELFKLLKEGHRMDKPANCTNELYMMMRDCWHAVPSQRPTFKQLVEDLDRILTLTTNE
Following the 1-hour incubation with compounds, cell lysates were prepared and phospho FGFR2 was measured using the HTRF Phospho-FGFR2 (TYR653/654) Detection Kits (CisBio, cat #64FGFR2Y6PEG). 8 μL of cell lysis buffer (4×) supplied with 1× Phospho and Total protein blocking reagent (CisBio, cat #64FGFR2Y6PEG, CisBio, cat #64KB1AAC) was then added to the wells. Cells were incubated with lysis buffer for 40 minutes at 4° C. under shaking conditions. Plates were centrifuged at 1500 rpm for 3 min and then 16 μL of cell lysate was transferred from the cell-culture plate to a small volume detection plate with the added premixed antibody solutions (4 μL) (CisBio, cat #64FGFR2Y6PEG). Plates were centrifuged at 1000 rpm for 1 min then incubated at 25° C. for 120 min, then overnight at 4° C. Plates were read on the En Vision multimode plate reader via HTRF dual wavelength detection. One hundred percent of control (POC) was determined using DMSO treated samples, and 0 POC was determined using the top concentration of a control compound. A 4-parameter logistic curve was fit to the POC values as a function of compound concentration to determine the IC50 value.

The next assay addresses T2, FGFR2 N549H (Homo sapiens, UniProt P21802, N549H).
T2 construct: biochemical assays using purified intracellular domains of the respective isoforms; purchased Carna Bioscience 08-532
Briefly: FGFR mutant enzyme assay (HTRF KinEASE-TK). Format: biochemical. The conditions noted are these: ATP 0.9 uM. The method, then: as §1

In the next assay the target is T3, FGFR2 V564F (Homo sapiens, UniProt P21802, V564F).
T3 construct: biochemical assays using purified intracellular domains of the respective isoforms; purchased SignalChem Biotech F05-12FG
T3 sequence (P21802 399-821 V564F limits assumed): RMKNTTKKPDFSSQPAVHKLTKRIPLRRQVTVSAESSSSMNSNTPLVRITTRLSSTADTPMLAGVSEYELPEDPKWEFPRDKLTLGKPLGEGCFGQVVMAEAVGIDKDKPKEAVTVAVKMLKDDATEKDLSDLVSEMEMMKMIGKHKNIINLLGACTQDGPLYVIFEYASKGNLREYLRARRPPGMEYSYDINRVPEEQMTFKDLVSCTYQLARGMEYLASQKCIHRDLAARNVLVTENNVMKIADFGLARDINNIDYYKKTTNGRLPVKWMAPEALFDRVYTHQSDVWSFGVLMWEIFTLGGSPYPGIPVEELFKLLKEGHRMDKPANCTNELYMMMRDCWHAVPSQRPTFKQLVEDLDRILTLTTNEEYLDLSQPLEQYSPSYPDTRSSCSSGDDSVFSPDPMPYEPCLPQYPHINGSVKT
Nature of the assay: FGFR mutant enzyme assay (HTRF KinEASE-TK). Format: biochemical. As to conditions: ATP 1.5 uM. The procedure: as §1

For another assay, the target named is T4, FGFR2 V564I (Homo sapiens, UniProt P21802, V564I).
T4 construct: biochemical assays using purified intracellular domains of the respective isoforms; purchased Carna Bioscience 08-546
T4 sequence (P21802 399-821 V564I limits assumed): as the sequence (P21802 399-821 V564F limits assumed) above, with F166I counted along it
Briefly: FGFR mutant enzyme assay (HTRF KinEASE-TK). Type of assay: biochemical. As to conditions: ATP 0.4 uM. The procedure: as §1

Setting [1] is: compound table after the examples, read-out: Enz FGFR2.

Where two headings read alike, the source gives them in different places.

T2 sequence (P21802 399-821 N549H limits assumed): as the sequence (P21802 399-821 V564F limits assumed) above, with N151H, F166V counted along it
T1 sequence (P21802 399-821 limits assumed): as the sequence (P21802 399-821 V564F limits assumed) above, with F166V counted along it

For the molecule `Cc1c(-c2cc(O[C@H](C)c3ccc(F)cn3)c3c(C#N)cnn3c2)cnn1[C@H]1CC[C@H](O)CC1` [Compound 1, 4-[(1R)-1-(5-fluoro-2-pyridyl)ethoxy]-6-[1-(4-hydroxycyclohexyl)-5-methyl-pyrazol-4-yl]pyrazolo[1,5-a]pyridine-3-carbonitrile], the IC50 at FGFR2 (Table 3, read-out: FGFR2 Enz) is 0.3 nM; on FGFR2 (setting [1]), 0.3 nM; against FGFR2-WT, 3.4 nM; against FGFR2 N549H it was 0.4 nM; at FGFR2 V564F it was 1 nM; against FGFR2 V564I, 1.4 nM.

`C[C@@H](Oc1cc(-c2cnn(C3CCNCC3)c2)cn2ncc(C#N)c12)c1ccccn1` [Compound 2, (R)-6-(1-(piperidin-4-yl)-1H-pyrazol-4-yl)-4-(1-(pyridin-2-yl)ethoxy)pyrazolo[1,5-a]pyridine-3-carbonitrile]: the IC50 on FGFR2 (Table 3, read-out: FGFR2 Enz) worked out at 0.16 nM; at FGFR2 (setting [1]), 0.16 nM; at FGFR2-WT, 2.5 nM; against FGFR2 N549H, 0.05 nM; against FGFR2 V564F, 0.14 nM; on FGFR2 V564I, 0.24 nM.

Consider `C[C@H](Oc1cc(-c2cnn(C3CCNCC3)c2)cn2ncc(C#N)c12)c1ccccn1` [Compound 3, (S)-6-(1-(piperidin-4-yl)-1H-pyrazol-4-yl)-4-(1-(pyridin-2-yl)ethoxy)pyrazolo[1,5-a]pyridine-3-carbonitrile], for which the IC50 on FGFR2 (Table 3, read-out: FGFR2 Enz) amounted to 21 nM; at FGFR2 (setting [1]), 21 nM; against FGFR2-WT it was 128 nM.

For the molecule `Cc1nn(C2CCNCC2)c(C)c1-c1cc(O[C@H](C)c2ccccn2)c2c(C#N)cnn2c1` [Compound 4, (R)-6-(3,5-dimethyl-1-(piperidin-4-yl)-1H-pyrazol-4-yl)-4-(1-(pyridin-2-yl)ethoxy)pyrazolo[1,5-a]pyridine-3-carbonitrile], the IC50 is 1 nM at FGFR2 (Table 3, read-out: FGFR2 Enz); 1 nM on FGFR2 (setting [1]); 26 nM at FGFR2-WT; 2 nM against FGFR2 N549H; 3 nM on FGFR2 V564F; 4 nM on FGFR2 V564I.

As to `Cc1c(-c2cc(O[C@H](C)c3ccccn3)c3c(C#N)cnn3c2)cnn1C1CCNCC1` [Compound 5, (R)-6-(5-methyl-1-(piperidin-4-yl)-1H-pyrazol-4-yl)-4-(1-(pyridin-2-yl)ethoxy)pyrazolo[1,5-a]pyridine-3-carbonitrile], the IC50 at FGFR2 (Table 3, read-out: FGFR2 Enz) is 0.25 nM; at FGFR2 (setting [1]), 0.25 nM; on FGFR2-WT, 5 nM; against FGFR2 N549H, 0.7 nM; against FGFR2 V564F, 1 nM; against FGFR2 V564I it was 1.4 nM.

In the case of `Cc1nn(C2CCN(C)CC2)c(C)c1-c1cc(O[C@H](C)c2ccccn2)c2c(C#N)cnn2c1` [Compound 6, (R)-6-(3,5-dimethyl-1-(1-methylpiperidin-4-yl)-1H-pyrazol-4-yl)-4-(1-(pyridin-2-yl)ethoxy)pyrazolo[1,5-a]pyridine-3-carbonitrile], the IC50 at FGFR2 (Table 3, read-out: FGFR2 Enz) amounted to 1 nM; on FGFR2 (setting [1]), 1 nM; at FGFR2-WT it was 15 nM; at FGFR2 N549H, 2.4 nM; on FGFR2 V564F it was 4 nM; against FGFR2 V564I, 4.3 nM.

Take `Cc1c(-c2cc(O[C@H](C)c3ccccn3)c3c(C#N)cnn3c2)cnn1C1CCN(C)CC1` [Compound 7, (R)-6-(5-methyl-1-(1-methylpiperidin-4-yl)-1H-pyrazol-4-yl)-4-(1-(pyridin-2-yl)ethoxy)pyrazolo[1,5-a]pyridine-3-carbonitrile]: the IC50 on FGFR2 (Table 3, read-out: FGFR2 Enz) was 0.3 nM; at FGFR2 (setting [1]), 0.3 nM; against FGFR2-WT it was 6 nM; against FGFR2 N549H it was 0.5 nM; on FGFR2 V564F it was 1 nM; at FGFR2 V564I it was 1 nM.

For the molecule `C[C@@H](Oc1cc(-c2cnn(C3CCNCC3)c2)cn2ncc(C#N)c12)c1ncccc1F` [Compound 8, (R)-4-(1-(3-fluoropyridin-2-yl)ethoxy)-6-(1-(piperidin-4-yl)-1H-pyrazol-4-yl)pyrazolo[1,5-a]pyridine-3-carbonitrile], the IC50 on FGFR2 (Table 3, read-out: FGFR2 Enz) is 0.2 nM; on FGFR2 (setting [1]) it was 0.2 nM; against FGFR2-WT, 2 nM; against FGFR2 N549H, 0.05 nM; against FGFR2 V564F, 0.08 nM; on FGFR2 V564I, 0.1 nM.

For `Cc1c(-c2cc(O[C@H](C)c3ncccc3F)c3c(C#N)cnn3c2)cnn1C1CCNCC1` [Compound 9, (R)-4-(1-(3-fluoropyridin-2-yl)ethoxy)-6-(5-methyl-1-(piperidin-4-yl)-1H-pyrazol-4-yl)pyrazolo[1,5-a]pyridine-3-carbonitrile], the IC50 on FGFR2 (Table 3, read-out: FGFR2 Enz) is 0.3 nM; at FGFR2 (setting [1]), 0.3 nM; on FGFR2-WT, 7 nM; against FGFR2 N549H it was 0.5 nM; on FGFR2 V564F, 1 nM; against FGFR2 V564I it was 1 nM.

Consider `Cc1c(-c2cc(O[C@H](C)c3ncccc3F)c3c(C#N)cnn3c2)cnn1[C@H]1CCCNC1` [Compound 10, 4-((R)-1-(3-fluoropyridin-2-yl)ethoxy)-6-(5-methyl-1-((S)-piperidin-3-yl)-1H-pyrazol-4-yl)pyrazolo[1,5-a]pyridine-3-carbonitrile], for which the IC50 turned out to be 0.3 nM on FGFR2 (Table 3, read-out: FGFR2 Enz); 0.3 nM at FGFR2 (setting [1]); 5 nM against FGFR2-WT; 0.55 nM on FGFR2 N549H; 0.8 nM at FGFR2 V564F; 1 nM on FGFR2 V564I.

With `Cc1nn([C@H]2CCCNC2)c(C)c1-c1cc(O[C@H](C)c2ncccc2F)c2c(C#N)cnn2c1` [Compound 11, 6-(3,5-dimethyl-1-((S)-piperidin-3-yl)-1H-pyrazol-4-yl)-4-((R)-1-(3-fluoropyridin-2-yl)ethoxy)pyrazolo[1,5-a]pyridine-3-carbonitrile], the IC50 at FGFR2 (Table 3, read-out: FGFR2 Enz) is 1.4 nM; at FGFR2 (setting [1]), 0.5 nM; against FGFR2-WT it was 23 nM; against FGFR2 N549H it was 4.6 nM; on FGFR2 V564F, 4.4 nM; against FGFR2 V564I, 5.8 nM.

As to `Cc1c(-c2cc(O[C@H](C)c3ccc(F)cn3)c3c(C#N)cnn3c2)cnn1[C@H]1CCCNC1` [Compound 12, 4-((R)-1-(5-fluoropyridin-2-yl)ethoxy)-6-(5-methyl-1-((S)-piperidin-3-yl)-1H-pyrazol-4-yl)pyrazolo[1,5-a]pyridine-3-carbonitrile], the IC50 at FGFR2 (Table 3, read-out: FGFR2 Enz) worked out at 0.45 nM; on FGFR2 (setting [1]) it was 0.5 nM; against FGFR2-WT, 4.7 nM; on FGFR2 N549H, 0.7 nM; at FGFR2 V564F, 1.3 nM; against FGFR2 V564I, 1.8 nM.

Regarding `CC(=O)N1CCC[C@H](n2ncc(-c3cc(O[C@H](C)c4ccc(F)cn4)c4c(C#N)cnn4c3)c2C)C1` [Compound 13, 6-(1-((S)-1-acetylpiperidin-3-yl)-5-methyl-1H-pyrazol-4-yl)-4-((R)-1-(5-fluoropyridin-2-yl)ethoxy)pyrazolo[1,5-a]pyridine-3-carbonitrile], the IC50 on FGFR2 (Table 3, read-out: FGFR2 Enz) worked out at 0.5 nM; on FGFR2 (setting [1]), 0.6 nM; at FGFR2-WT it was 3.8 nM; at FGFR2 N549H, 0.6 nM; on FGFR2 V564F, 1.6 nM; on FGFR2 V564I, 2 nM.

As to `Cc1c(-c2cc(O[C@H](C)c3ccc(Cl)cn3)c3c(C#N)cnn3c2)cnn1[C@H]1CCCNC1` [Compound 14, 4-((R)-1-(5-chloropyridin-2-yl)ethoxy)-6-(5-methyl-1-((S)-piperidin-3-yl)-1H-pyrazol-4-yl)pyrazolo[1,5-a]pyridine-3-carbonitrile], the IC50 on FGFR2 (Table 3, read-out: FGFR2 Enz) came out at 12.5 nM; at FGFR2 (setting [1]), 12.5 nM; against FGFR2-WT, 267 nM; against FGFR2 N549H, 14 nM; on FGFR2 V564F it was 15 nM; against FGFR2 V564I it was 38 nM.
